From ChEMBL document CHEMBL1129214, “Synthesis and structure-activity relationship of C-3 quaternary ammonium cephalosporins exhibiting anti-MRSA activities” (1997) come the findings set out here.

Type in all cases: functional
In test [1] the test system is Staphylococcus aureus. As to the kind of experiment: In vitro activity against MRSA (A27217; heterogeneous strain) by standard broth dilution method. To be noted: Staphylococcus aureus; read-out: MIC.
The test system of test [2] is Staphylococcus aureus. As to the kind of experiment: In vitro activity against MSSA (A20241) by standard broth dilution method. To be noted: Staphylococcus aureus; read-out: MIC. In general terms: Dilution methods test growth across graded concentrations, often in twofold steps.
In test [3] the test system is Staphylococcus aureus. As to the kind of experiment: In vitro activity against MSSA (A15090) by standard broth dilution method. To be noted: Staphylococcus aureus; read-out: MIC.
The test system of test [4] is Staphylococcus aureus. As to the kind of experiment: In vitro activity against MRSA (A27226; homogeneous strain) by standard broth dilution method. The settings on record: Staphylococcus aureus; read-out: MIC.
Test [5] deals with Staphylococcus aureus. As to the kind of experiment: In vitro activity against MRSA (A27223; homogeneous strain) by standard broth dilution method. To be noted: Staphylococcus aureus; read-out: MIC.
Test [6] concerns Staphylococcus aureus. As to the kind of experiment: In vitro activity against MRSA (A27621; homogeneous strain) by standard broth dilution method. The settings on record: Staphylococcus aureus; read-out: MIC.
A short description of test [7]: In vivo inhibitory activity of compound against staphylococcus aureus; […]. The settings on record: read-out: PD50.

≈ marks a conversion by molar mass, not a printed value.

A word on the MIC: it is the lowest concentration that inhibits growth of the organism. For the compound `O=C(CSc1cc(Cl)ccc1Cl)N[C@@H]1C(=O)N2C(C(=O)[O-])=C(C[n+]3cccc4c3CCCC4)CS[C@H]12`, the minimal inhibitory concentration (MIC) was 1 µg/mL (≈ 1.77 µM) in the test on Staphylococcus aureus [1]; 0.5 µg/mL (≈ 0.886 µM) in the test with Staphylococcus aureus [2]; 0.5 µg/mL (≈ 0.886 µM) in the test with Staphylococcus aureus [3]; 1 µg/mL (≈ 1.77 µM) with Staphylococcus aureus [4]; 2 µg/mL (≈ 3.54 µM) in the test on Staphylococcus aureus [5]; 2 µg/mL (≈ 3.54 µM) with Staphylococcus aureus [6].

Take `NCC(=O)NC1C[N+]2(CC3=C(C(=O)[O-])N4C(=O)[C@@H](NC(=O)CSc5cc(Cl)ccc5Cl)[C@H]4SC3)CCC1CC2` (stereo partly specified): the minimum inhibitory concentration (MIC) with Staphylococcus aureus [1] amounted to 4 µg/mL (≈ 6.51 µM); in the test with Staphylococcus aureus [2], 0.5 µg/mL (≈ 0.814 µM); with Staphylococcus aureus [3], 0.5 µg/mL (≈ 0.814 µM); in the test on Staphylococcus aureus [4], 2 µg/mL (≈ 3.25 µM); in the test on Staphylococcus aureus [5], 4 µg/mL (≈ 6.51 µM); in the test with Staphylococcus aureus [6], 4 µg/mL (≈ 6.51 µM).

For the compound `NC(=O)COc1cccc2c[n+](CC3=C(C(=O)[O-])N4C(=O)[C@@H](NC(=O)CSc5cc(Cl)ccc5Cl)[C@H]4SC3)ccc12`, the MIC with Staphylococcus aureus [1] turned out to be 2 µg/mL (≈ 3.16 µM); with Staphylococcus aureus [2], 1 µg/mL (≈ 1.58 µM); in the test with Staphylococcus aureus [3], 1 µg/mL (≈ 1.58 µM); in the test on Staphylococcus aureus [4], 2 µg/mL (≈ 3.16 µM); in the test on Staphylococcus aureus [5] it was 2 µg/mL (≈ 3.16 µM); in the test on Staphylococcus aureus [6] it was 2 µg/mL (≈ 3.16 µM).

In the case of `O=C(CSc1cc(Cl)ccc1Cl)N[C@@H]1C(=O)N2C(C(=O)[O-])=C(C[N+]34CCC(CC3)CC4)CS[C@H]12`, the MIC in the test with Staphylococcus aureus [1] was 2 µg/mL (≈ 3.69 µM); with Staphylococcus aureus [2] it was 1 µg/mL (≈ 1.84 µM); with Staphylococcus aureus [3], 1 µg/mL (≈ 1.84 µM); in the test with Staphylococcus aureus [4] it was 4 µg/mL (≈ 7.37 µM); in the test on Staphylococcus aureus [5], 2 µg/mL (≈ 3.69 µM); in the test on Staphylococcus aureus [6], 4 µg/mL (≈ 7.37 µM).

For the compound `NC(=O)c1ccc2n(cc[n+]2CC2=C(C(=O)[O-])N3C(=O)[C@@H](NC(=O)CSc4cc(Cl)ccc4Cl)[C@H]3SC2)c1`, the MIC in the test with Staphylococcus aureus [1] amounted to 2 µg/mL (≈ 3.38 µM); in the test on Staphylococcus aureus [2], 1 µg/mL (≈ 1.69 µM); with Staphylococcus aureus [3] it was 0.5 µg/mL (≈ 0.844 µM); in the test on Staphylococcus aureus [4], 2 µg/mL (≈ 3.38 µM); in the test on Staphylococcus aureus [5] it was 2 µg/mL (≈ 3.38 µM); in the test on Staphylococcus aureus [6], 2 µg/mL (≈ 3.38 µM).

Take `O=C(CSc1cc(Cl)ccc1Cl)N[C@@H]1C(=O)N2C(C(=O)[O-])=C(C[n+]3ccn4ccccc43)CS[C@H]12`: the minimum inhibitory concentration (MIC) in the test on Staphylococcus aureus [1] is 2 µg/mL (≈ 3.64 µM); in the test with Staphylococcus aureus [2] it was 0.5 µg/mL (≈ 0.91 µM); in the test on Staphylococcus aureus [3] it was 0.25 µg/mL (≈ 0.455 µM); with Staphylococcus aureus [4], 1 µg/mL (≈ 1.82 µM); in the test with Staphylococcus aureus [5], 4 µg/mL (≈ 7.28 µM); in the test with Staphylococcus aureus [6], 2 µg/mL (≈ 3.64 µM).

As for `O=C(CSc1cc(Cl)ccc1Cl)N[C@@H]1C(=O)N2C(C(=O)[O-])=C(C[n+]3cccc4cc[nH]c43)CS[C@H]12`, the MIC came out at 1 µg/mL (≈ 1.82 µM) with Staphylococcus aureus [1]; 1 µg/mL (≈ 1.82 µM) in the test with Staphylococcus aureus [2]; 1 µg/mL (≈ 1.82 µM) in the test on Staphylococcus aureus [3]; 2 µg/mL (≈ 3.64 µM) in the test on Staphylococcus aureus [4]; 2 µg/mL (≈ 3.64 µM) in the test with Staphylococcus aureus [5]; 2 µg/mL (≈ 3.64 µM) in the test with Staphylococcus aureus [6].

Consider `O=C(C[N+]12CCN(CC1)CC2)N[C@@H]1C(=O)N2C(C(=O)[O-])=C(CSc3cc(Cl)ccc3Cl)CS[C@H]12`, for which the MIC with Staphylococcus aureus [1] is 128 µg/mL (≈ 236 µM); in the test with Staphylococcus aureus [2], 4 µg/mL (≈ 7.36 µM); in the test on Staphylococcus aureus [3] it was 4 µg/mL (≈ 7.36 µM); in the test on Staphylococcus aureus [4] it was 128 µg/mL (≈ 236 µM); in the test on Staphylococcus aureus [5] it was 128 µg/mL (≈ 236 µM); in the test with Staphylococcus aureus [6], 128 µg/mL (≈ 236 µM).

Consider `O=C(CSc1cc(Cl)ccc1Cl)N[C@@H]1C(=O)N2C(C(=O)[O-])=C(C[N+]34CCN(CC3)CC4)CS[C@H]12`, for which the MIC in the test with Staphylococcus aureus [1] was found to be 2 µg/mL (≈ 3.68 µM); with Staphylococcus aureus [2], 0.5 µg/mL (≈ 0.92 µM); in the test with Staphylococcus aureus [3] it was 0.25 µg/mL (≈ 0.46 µM); with Staphylococcus aureus [4] it was 4 µg/mL (≈ 7.36 µM); in the test on Staphylococcus aureus [5], 4 µg/mL (≈ 7.36 µM); in the test with Staphylococcus aureus [6], 4 µg/mL (≈ 7.36 µM). Further, the ED50 in test [7] came out at 0.8 mg/kg.

For the compound `O=C(CSc1cc(Cl)ccc1Cl)N[C@@H]1C(=O)N2C(C(=O)[O-])=C(C[n+]3cccc4[nH]cnc43)CS[C@H]12`, the MIC in the test on Staphylococcus aureus [1] came to 1 µg/mL (≈ 1.82 µM); in the test with Staphylococcus aureus [2], 0.125 µg/mL (≈ 0.227 µM); with Staphylococcus aureus [3] it was 0.125 µg/mL (≈ 0.227 µM); with Staphylococcus aureus [4], 1 µg/mL (≈ 1.82 µM); in the test on Staphylococcus aureus [5], 2 µg/mL (≈ 3.63 µM); in the test on Staphylococcus aureus [6], 2 µg/mL (≈ 3.63 µM).
